Target: T1, c-Met kinase (recombinant c-Met) (Homo sapiens, UniProt P08581)
T1 construct: 0.27 nM recombinant c-Met
Test: In vitro kinase assay I (homogeneous time-resolved fluorescence tyrosine kinase assay)
Type: biochemical
Experimental: The kinase activities of c-Met are measured using a modified version of the homogeneous-time-resolved tyrosine kinase assay described by Park et al. (1999, Anal. Biochem. 269:94-104).
The procedure for determining the potency of a compound to inhibit c-Met kinase comprises the following steps: • 1. Prepare 3-fold serial diluted compound solutions in 100% dimethyl sulfoxide (DMSO) at 20× of the desired final concentrations in a 384-well plate. • 2. Prepare a master reaction mix containing 6.67 mM MgCl2, 133.3 mM NaCl, 66.7 mM Tris-HCl (pH 7.4), 0.13 mg/ml BSA, 2.67 mM dithiothreitol, 0.27 nM recombinant c-Met and 666.7 nM biotinylated synthetic peptide substrate (biotin-ahx-EQEDEPEGDYFEWLE-CONH2) (SEQ.ID.NO.:1). • 3. In a black assay plate, add 1.5 μl of compound solution (or DMSO) and 22.5 μl of master reaction mix per well. Initiate the kinase reaction by adding 6 μl of 0.25 mM MgATP per well. Allow the reactions to proceed for 60 min at room temperature. The final conditions for the reaction are 0.2 nM c-Met, 0.5 μM substrate, 50 μM MgATP, 5 mM MgCl2, 100 mM NaCl, 2 mM DTT, 0.1 mg/ml BSA, 50 mM Tris (pH 7.4) and 5% DMSO. • 4. Stop the kinase reaction with 30 μl of Stop/Detection buffer containing 10 mM EDTA, 25 mM HEPES, 0.1% TRITON X-100, 0.750 nM Eu-chelate labeled anti-phosphotyrosine antibody PY20 (cat. #AD0067, PerkinElmer) and 50 μg/ml Streptavidin-allophycocyanin conjugate (cat. #PJ25S, Prozyme). • 5. Read HTRF signals on a Victor reader (PerkinElmer) in HTRF mode after 60-min incubation at room temperature in the dark. • 6. IC50 is determined by fitting the observed relationship between compound concentration and HTRF signal with a 4-parameter logistic equation. II. GTL-16 pY1349 Cell-Based Assay

T1 sequence (P08581 25-1390): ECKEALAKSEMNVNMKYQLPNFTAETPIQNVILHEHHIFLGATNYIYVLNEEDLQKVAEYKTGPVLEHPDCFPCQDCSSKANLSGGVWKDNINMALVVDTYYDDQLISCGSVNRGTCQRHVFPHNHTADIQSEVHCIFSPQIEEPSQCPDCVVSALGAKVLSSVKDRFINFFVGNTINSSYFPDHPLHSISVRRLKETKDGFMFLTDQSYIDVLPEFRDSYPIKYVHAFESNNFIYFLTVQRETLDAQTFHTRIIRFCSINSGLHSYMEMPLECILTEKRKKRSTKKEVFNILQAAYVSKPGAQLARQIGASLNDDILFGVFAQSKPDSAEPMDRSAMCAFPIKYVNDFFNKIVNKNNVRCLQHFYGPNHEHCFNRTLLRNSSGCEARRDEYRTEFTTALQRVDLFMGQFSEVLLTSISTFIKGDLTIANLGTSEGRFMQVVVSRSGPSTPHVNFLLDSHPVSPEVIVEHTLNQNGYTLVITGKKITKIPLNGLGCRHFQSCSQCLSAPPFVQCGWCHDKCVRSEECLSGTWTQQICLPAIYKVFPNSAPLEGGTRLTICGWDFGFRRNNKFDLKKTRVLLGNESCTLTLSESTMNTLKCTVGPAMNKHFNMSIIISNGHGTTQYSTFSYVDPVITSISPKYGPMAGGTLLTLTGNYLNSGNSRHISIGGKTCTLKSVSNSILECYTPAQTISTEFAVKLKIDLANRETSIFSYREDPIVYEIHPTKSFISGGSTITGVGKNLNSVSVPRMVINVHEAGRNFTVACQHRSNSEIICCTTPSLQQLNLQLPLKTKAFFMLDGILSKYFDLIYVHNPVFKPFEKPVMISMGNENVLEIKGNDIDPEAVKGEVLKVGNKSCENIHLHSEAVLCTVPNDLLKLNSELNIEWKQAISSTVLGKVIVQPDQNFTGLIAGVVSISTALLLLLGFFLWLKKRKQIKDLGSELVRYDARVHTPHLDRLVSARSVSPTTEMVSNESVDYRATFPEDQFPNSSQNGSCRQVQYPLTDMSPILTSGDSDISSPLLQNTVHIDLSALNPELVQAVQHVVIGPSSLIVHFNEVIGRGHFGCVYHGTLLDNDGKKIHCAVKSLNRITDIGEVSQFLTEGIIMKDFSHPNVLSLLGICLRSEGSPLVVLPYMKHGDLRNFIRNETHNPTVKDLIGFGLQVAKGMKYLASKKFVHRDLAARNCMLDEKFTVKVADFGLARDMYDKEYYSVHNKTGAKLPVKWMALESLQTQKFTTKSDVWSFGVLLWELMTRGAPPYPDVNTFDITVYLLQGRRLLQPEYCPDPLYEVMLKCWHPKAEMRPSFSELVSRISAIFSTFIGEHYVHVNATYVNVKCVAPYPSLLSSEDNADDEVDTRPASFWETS

Row | Compound | IC50 [nM]
1 | CCn1cc(-n2ccc(=O)c(C(C)c3cccc(-c4ncc(OCCOC)cn4)c3)n2)cn1 (single isomer, unassigned) [Example 248, 1-(1-ethyl-1H-pyrazol-4-yl)-3-((1R or S)-1-{3-[5-(2-methoxyethoxy)pyrimidin-2-yl]phenyl}ethyl)pyridazin-4(1H)-one] | < 100
2 | CCn1cc(-n2ccc(=O)c(Cc3cccc(-c4ncn(CC)n4)c3)n2)cn1 [Example 86, 1-(1-ethyl-1H-pyrazol-4-yl)-3-[3-(1-ethyl-1H-1,2,4-triazol-3-yl)benzyl]pyridazin-4(1H)-one] | < 100
3 | Cn1cc(-n2ccc(=O)c(Cc3cccc(-c4ncc(CN5CCSCC5)cn4)c3)n2)cn1 [Example 428, 1-(1-methyl-1H-pyrazol-4-yl)-3-{3-[5-(thiomorpholin-4-ylmethyl)pyrimidin-2-yl]benzyl}pyridazin-4(1H)-one] | < 100
4 | Cn1cc(-n2ccc(=O)c(Cc3cccc(NC(=O)OCC4CCCCC4)c3)n2)cn1 [Example 540, cyclohexylmethyl (3-{[1-(1-methyl-1H-pyrazol-4-yl)-4-oxo-1,4-dihydropyridazin-3-yl]methyl}phenyl)carbamate] | < 100
5 | Cn1cc(-n2ccc(=O)c(Cc3cccc(-c4ncc(C5CCCO5)cn4)c3)n2)cn1 (racemic) [Example 198, rac-1-(1-Methyl-1H-pyrazol-4-yl)-3-{3-[5-(tetrahydrofuran-2-yl)pyrimidin-2-yl]benzyl}pyridazin-4(1H)-one] | < 100
6 | COCCOC(=O)Nc1cccc(Cc2nn(-c3cc(F)cc(C#N)c3)ccc2=O)c1 [Example 73, 2-methoxyethyl (3-{[1-(3-cyano-5-fluorophenyl)-4-oxo-1,4-dihydropyridazin-3-yl]methyl}phenyl)carbamate] | < 100
7 | CCn1cnc(-c2cccc(Cc3nn(-c4cnn(C)c4)ccc3=O)c2)n1 [Example 708, 3-[3-(1-ethyl-1H-1,2,4-triazol-3-yl)benzyl]-1-(1-methyl-1H-pyrazol-4-yl)pyridazin-4(1H)-one] | < 100
8 | Cn1cc(-n2ccc(=O)c(Cc3cccc(NC(=O)OC[C@H]4CCCN4)c3)n2)cn1 [Example 615, (2R)-pyrrolidin-2-ylmethyl (3-{[1-(1-methyl-1H-pyrazol-4-yl)-4-oxo-1,4-dihydropyridazin-3-yl]methyl}phenyl)carbamate] | 100 to 1000
9 | COc1cnc(-c2cccc(C(C)c3nn(-c4cnn(C)c4)ccc3=O)c2)nc1 (single isomer, unassigned) [Example 203, 3-{(1S or R)-1-[3-(5-Methoxypyrimidin-2-yl)phenyl]ethyl}-1-(1-methyl-1H-pyrazol-4-yl)pyridazin-4(1H)-one] | 100 to 1000
10 | Cn1cc(-n2ccc(=O)c(Cc3cccc(-c4ncc(NCC5CCOC5)cn4)c3)n2)cn1 (racemic) [Example 455, rac-1-(1-methyl-1H-pyrazol-4-yl)-3-(3-{5-[(tetrahydro-furan-3-ylmethyl)amino]pyrimidin-2-yl}benzyl)pyridazin-4(1H)-one] | < 100
11 | CC(C)CNC(=O)Nc1cccc(Cc2nn(-c3cnn(C)c3)ccc2=O)c1 [Example 491, 1-(2-methylpropyl)-3-(3-{[1-(1-methyl-1H-pyrazol-4-yl)-4-oxo-1,4-dihydropyridazin-3-yl]methyl}phenyl)urea] | < 100
12 | CCn1cc(-n2ccc(=O)c(Cc3cccc(NC(=O)OCC(C)C)c3)n2)cn1 [Example 110, 2-methylpropyl (3-{[1-(1-ethyl-1H-pyrazol-4-yl)-4-oxo-1,4-dihydropyridazin-3-yl]methyl}phenyl)carbamate] | < 100
13 | [2H]C([2H])([2H])n1cc(-n2ccc(=O)c(C(F)c3cccc(-c4ncc(OCC)cn4)c3)n2)cn1 (racemic) [Example 657, rac-3-[[3-(5-Ethoxypyrimidin-2-yl)phenyl](fluoro)methyl]-1-(1-methyl-1H-pyrazol-4-yl)pyridazin-4(1H)-one-d3] | < 100
14 | Cn1cc(-n2ccc(=O)c(Cc3ccc4nccn4c3)n2)cn1 [Example 46, 3-(imidazo[1,2-a]pyridin-6-ylmethyl)-1-(1-methyl-1H-pyrazol-4-yl)pyridazin-4(1H)-one] | 1000 to 3000
15 | Cn1cc(-n2ccc(=O)c(Cc3cccc(-c4ncc(CNC5CCCCC5)cn4)c3)n2)cn1 [Example 432, 3-(3-{5-[(cyclohexyl-amino)methyl]pyrimidin-2-yl}benzyl)-1-(1-methyl-1H-pyrazol-4-yl)pyridazin-4(1H)-one] | 100 to 1000
16 | CCn1cc(-n2ccc(=O)c(C(C)c3cccc(-c4ncc(OCC(F)F)cn4)c3)n2)cn1 (single isomer, unassigned) [Example 294, 3-[(1R or S)-1-{3-[5-(2,2-difluoroethoxy)pyrimidin-2-yl]phenyl}ethyl]-1-(1-ethyl-1H-pyrazol-4-yl)pyridazin-4(1H)-one] | < 100
17 | CCOc1cnc(-c2cccc(Cc3nn(-c4cnn(C)c4F)cc(F)c3=O)c2)nc1 [compound 752] | < 100
18 | CN1CCN(CCCOC(=O)Nc2cccc(Cc3nn(-c4cc(F)c(F)c(F)c4)ccc3=O)c2)CC1 [Example 511, 3-(4-methylpiperazin-1-yl)propyl(3-{[4-oxo-1-(3,4,5-trifluorophenyl)-1,4-dihydropyridazin-3-yl]methyl}phenyl)carbamate] | < 100

Further lines, results first:

Row | IC50 [nM] | Compound
19 | < 100 | Cn1cc(-n2ccc(=O)c(Cc3cccc(-c4ncc(-n5cnnc5)cn4)c3)n2)cn1 [Example 473, 1-(1-Methyl-1H-pyrazol-4-yl)-3-{3-[5-(4H-1,2,4-triazol-4-yl)pyrimidin-2-yl]benzyl}pyridazin-4(1H)-one]
20 | < 100 | CCc1cnc(-c2cccc(Cc3nn(-c4cnn(C)c4)ccc3=O)c2)nc1 [Example 391, 3-[3-(5-Ethylpyrimidin-2-yl)benzyl]-1-(1-methyl-1H-pyrazol-4-yl)pyridazin-4(1H)-one]
21 | < 100 | CC(C)(O)COc1cnc(-c2cccc(Cc3nn(-c4cc(F)c(F)c(F)c4)ccc3=O)c2)nc1 [Example 362, 3-{3-[5-(2-hydroxy-2-methylpropoxy)pyrimidin-2-yl]benzyl}-1-(3,4,5-trifluorophenyl)pyridazin-4(1H)-one]
22 | < 100 | Cn1cc(-n2ccc(=O)c(Cc3cccc(-c4ncc(OCCn5cncn5)cn4)c3)n2)cn1 [Example 271, 1-(1-methyl-1H-pyrazol-4-yl)-3-(3-{5-[2-(1H-1,2,4-triazol-1-yl)ethoxy]pyrimidin-2-yl}benzyl)pyridazin-4(1H)-one]
23 | < 100 | CC(c1cccc(-c2ncc(OCC(C)(C)O)cn2)c1)c1nn(-c2cnn(C)c2)ccc1=O (single isomer, unassigned) [Example 381, 3-((1R or S)-1-{3-[5-(2-hydroxy-2-methylpropoxy)pyrimidin-2-yl]phenyl}ethyl)-1-(1-methyl-1H-pyrazol-4-yl)pyridazin-4(1H)-one]
24 | < 100 | CC(C)(O)COc1cnc(-c2cccc(Cc3nn(-c4ccc(C#N)cc4)ccc3=O)c2)nc1 [Example 372, 4-[3-{3-[5-(2-hydroxy-2-methylpropoxy)pyrimidin-2-yl]benzyl}-4-oxopyridazin-1(4H)-yl]benzonitrile]
25 | < 100 | COc1cnc(-c2cccc(Cc3nn(-c4cncc(F)c4)ccc3=O)c2)nc1 [Example 36, 1-(5-fluoropyridin-3-yl)-3-[3-(5-methoxypyrimidin-2-yl)benzyl]pyridazin-4(1H)-one]
26 | < 100 | CC(C)c1cnc(-c2cccc(Cc3nn(-c4cnn(C)c4)ccc3=O)c2)nc1 [Example 436, 1-(1-Methyl-1H-pyrazol-4-yl)-3-{3-[5-(propan-2-yl)pyrimidin-2-yl]benzyl}pyridazin-4(1H)-one]
27 | < 100 | Cn1cc(-n2ccc(=O)c(Cc3cccc(-c4ncc(OCC5(F)CCOCC5)cn4)c3)n2)cn1 [Example 388, 3-(3-{5-[(4-fluorotetrahydro-2H-pyran-4-yl)methoxy]pyrimidin-2-yl}benzyl)-1-(1-methyl-1H-pyrazol-4-yl)pyridazin-4(1H)-one]
28 | < 100 | Cn1cc(-n2ccc(=O)c(Cc3cccc(-c4ncc(/C=C/C(C)(C)O)cn4)c3)n2)cn1 [Example 401, 3-(3-{5-[(1E)-3-hydroxy-3-methylbut-1-en-1-yl]pyrimidin-2-yl}benzyl)-1-(1-methyl-1H-pyrazol-4-yl)pyridazin-4(1H)-one]
29 | < 100 | CCOc1cnc(-c2cccc(Cc3nn(-c4cnn(C)c4)ccc3=O)c2)nc1CC [Example 178, 3-[3-(5-ethoxy-4-ethylpyrimidin-2-yl)benzyl]-1-(1-methyl-1H-pyrazol-4-yl)pyridazin-4(1H)-one]
30 | < 100 | Cn1cc(-n2ccc(=O)c(Cc3cccc(-c4ncc(OCC(F)c5ccncc5)cn4)c3)n2)cn1 (racemic) [Example 389, rac-3-(3-{5-[2-fluoro-2-(pyridin-4-yl)ethoxy]pyrimidin-2-yl}benzyl)-1-(1-methyl-1H-pyrazol-4-yl)pyridazin-4(1H)-one]

From patent publication US20120264735A1 (priority 2009, published 2012)
